From patent US20200339582A1, “Atypical Carbapenem Antibiotics with Improved Activity Against Carbapenemase-Producing Acinetobacter baumannii” (priority 2019, published 2020) come the findings set out here.

≈ marks a conversion by molar mass, not a printed value. Where two headings read alike, the source gives them in different places.

Assay type in all cases: cell-based
Assay [1] has as its system resistant Acinetobacter baumannii producing KPC-6. The assay can be described thus: MIC against Acinetobacter baumannii producing KPC-6.
The subject of assay [2] is Acinetobacter baumannii (carbapenemase produced: None). The assay can be described thus: MIC against Acinetobacter baumannii, no carbapenemase produced.
For assay [3], the system named is resistant Acinetobacter baumannii producing OXA-48. As to the kind of experiment: MIC against Acinetobacter baumannii producing OXA-48.
Assay [4] concerns resistant Acinetobacter baumannii producing OXA-23. The assay can be described thus: MIC against Acinetobacter baumannii producing OXA-23.
In assay [5] the test system is resistant Acinetobacter baumannii producing VIM-2. The assay can be described thus: MIC against Acinetobacter baumannii producing VIM-2.
Assay [6] has as its system resistant Acinetobacter baumannii producing NDM-1. As to the kind of experiment: MIC against Acinetobacter baumannii producing NDM-1.
Setting [7] is: Table 1, carbapenemase produced: None.
Where [8] appears, read: Table 1, carbapenemase produced: OXA-48.
The mark [9] stands for this setting: Table 2, enzyme produced: OXA-48.
Setting [10] is: Table 1, carbapenemase produced: OXA-23.
Where [11] appears, read: Table 2, enzyme produced: OXA-23.
[12] abbreviates: Acinetobacter baumannii, Table 1, carbapenemase produced: None, read-out: MIC.
Where [13] appears, read: Acinetobacter baumannii, Table 2, enzyme produced: None, read-out: MIC.
Setting [14] is: Acinetobacter baumannii, Table 1, carbapenemase produced: OXA-48, read-out: MIC.
Setting [15] is: Acinetobacter baumannii, Table 2, enzyme produced: OXA-48, read-out: MIC.
The mark [16] stands for this setting: Acinetobacter baumannii, Table 1, carbapenemase produced: OXA-23, read-out: MIC.
Where [17] appears, read: Acinetobacter baumannii, Table 2, enzyme produced: VIM-2, read-out: MIC.
Setting [18] is: Acinetobacter baumannii, Table 2, enzyme produced: NDM-1, read-out: MIC.

Turning to `CCC12CC(S[C@@H]3CN[C@H](C(=O)N(C)C)C3)=C(C(=O)O)N1C(=O)[C@@H]2[C@@H](C)O` (stereo partly drawn) [Compound 2b, (6S)-6-[(R)-1-Hydroxyethyl]-3-[(3S,5S)-5-(dimethylamino)carbonyl-3-pyrrolidinylthio]-5-ethyl-7-oxoazabicyclo[3.2.0]hept-2-ene-2-carboxylate], the MIC in assay [1] (Table 2, enzyme produced: KPC-6) turned out to be 4 mg/L (≈ 10.1 µM); in assay [2] (setting [7]), 2 mg/L (≈ 5.03 µM); in assay [2] (Table 2, enzyme produced: None) it was 2 mg/L (≈ 5.03 µM); in assay [3] (setting [8]), 4 mg/L (≈ 10.1 µM); in assay [3] (setting [9]), 4 mg/L (≈ 10.1 µM); in assay [4] (setting [10]), 4 mg/L (≈ 10.1 µM). For the same compound, the minimum inhibitory concentration (MIC) turned out to be 4 mg/L (≈ 10.1 µM) in assay [4] (setting [11]); 4 mg/L (≈ 10.1 µM) in assay [5] (Table 2, enzyme produced: VIM-2); 2 mg/L (≈ 5.03 µM) in assay [6] (Table 2, enzyme produced: NDM-1).

As to `C[C@@H](O)[C@H]1C(=O)N2C(C(=O)O)=C(SCCN=CN)C[C@H]12` [Imipenem, imipenem], the MIC in assay [2] (setting [12]) amounted to 0.25 mg/L (≈ 0.835 µM); in assay [2] (setting [13]) it was 0.25 mg/L (≈ 0.835 µM); in assay [3] (setting [14]) it was 16 mg/L (≈ 53.4 µM); in assay [3] (setting [15]) it was 16 mg/L (≈ 53.4 µM); in assay [4] (setting [16]), 32 mg/L (≈ 107 µM); in assay [4] (setting [11]), 32 mg/L (≈ 107 µM). Also, the minimal inhibitory concentration (MIC) worked out at 32 mg/L (≈ 107 µM) in assay [5] (setting [17]) and 16 mg/L (≈ 53.4 µM) in assay [6] (setting [18]).

As for `C[C@@H](O)[C@H]1C(=O)N2C(C(=O)O)=C(S[C@@H]3CN[C@H](CNS(N)(=O)=O)C3)[C@H](C)[C@H]12` [Doripenem, doripenem], the minimum inhibitory concentration (MIC) in assay [1] (Acinetobacter baumannii) came to 128 mg/L (≈ 304 µM); in assay [2] (setting [12]), 0.25 mg/L (≈ 0.595 µM); in assay [2] (setting [13]) it was 0.25 mg/L (≈ 0.595 µM); in assay [3] (setting [14]), 16 mg/L (≈ 38 µM); in assay [3] (setting [15]), 16 mg/L (≈ 38 µM); in assay [4] (setting [16]), 32 mg/L (≈ 76.1 µM). For the same compound, the results for the minimum inhibitory concentration (MIC) in assay [4] (setting [11]), in assay [5] (setting [17]) and in assay [6] (setting [18]) were 32 mg/L (≈ 76.1 µM), 32 mg/L (≈ 76.1 µM) and 64 mg/L (≈ 152 µM), respectively.

On to `C[C@@H](O)[C@H]1C(=O)N2C(C(=O)O)=C(S[C@@H]3CN[C@H](C(=O)Nc4cccc(C(=O)O)c4)C3)[C@H](C)[C@H]12` [Ertapenem, ertapenem], for which the minimal inhibitory concentration (MIC) in assay [1] (Acinetobacter baumannii) is greater than 512 mg/L; in assay [2] (setting [12]) it was 2 mg/L (≈ 4.21 µM); in assay [2] (setting [13]), 4 mg/L (≈ 8.41 µM); in assay [3] (Acinetobacter baumannii), 128 mg/L (≈ 269 µM); in assay [3] (setting [9]), 128 mg/L (≈ 269 µM); in assay [4] (setting [16]), 256 mg/L (≈ 538 µM). Further, the results for the minimal inhibitory concentration (MIC) in assay [4] (setting [11]), in assay [5] (Acinetobacter baumannii) and in assay [6] (setting [18]) were 256 mg/L (≈ 538 µM), greater than 512 mg/L and 256 mg/L (≈ 538 µM), respectively.

Turning to `C[C@@H](O)[C@H]1C(=O)N2C(C(=O)O)=C(S[C@@H]3CN[C@H](C(=O)N(C)C)C3)[C@H](C)[C@H]12` [Meropenem, meropenem], the minimal inhibitory concentration (MIC) amounted to 256 mg/L (≈ 668 µM) in assay [1] (Acinetobacter baumannii); 0.5 mg/L (≈ 1.3 µM) in assay [2] (setting [12]); 0.5 mg/L (≈ 1.3 µM) in assay [2] (setting [13]); 8 mg/L (≈ 20.9 µM) in assay [3] (setting [14]); 16 mg/L (≈ 41.7 µM) in assay [3] (setting [15]); 64 mg/L (≈ 167 µM) in assay [4] (setting [16]). Further, the MIC in assay [4] (setting [11]) is 64 mg/L (≈ 167 µM); in assay [5] (setting [17]), 64 mg/L (≈ 167 µM); in assay [6] (Acinetobacter baumannii), 128 mg/L (≈ 334 µM).

As for `CN(C)C(=O)[C@@H]1C[C@H](SC2=C(C(=O)O)N3C(=O)[C@H](CO)[C@H]3C2)CN1` [Compound 1], the minimum inhibitory concentration (MIC) in assay [2] (setting [7]) came out at 0.25 mg/L (≈ 0.703 µM); in assay [3] (setting [8]), 16 mg/L (≈ 45 µM); in assay [4] (setting [10]) it was 8 mg/L (≈ 22.5 µM).

Take `CC1(C)S[C@@H]2[C@H](NC(=O)[C@H](N)c3ccccc3)C(=O)N2[C@H]1C(=O)O` [AMP, ampicillin]: the minimal inhibitory concentration (MIC) in assay [1] (Acinetobacter baumannii) was 4100 mg/L (≈ 11700 µM); in assay [2] (setting [13]), 32 mg/L (≈ 91.6 µM); in assay [3] (Acinetobacter baumannii), 1020 mg/L (≈ 2930 µM); in assay [4] (Acinetobacter baumannii, Table 2, enzyme produced: OXA-23, read-out: MIC) it was 8190 mg/L (≈ 23400 µM); in assay [5] (setting [17]), greater than 8190 mg/L; in assay [6] (Acinetobacter baumannii), 1020 mg/L (≈ 2930 µM).

As for `C[C@@H](O)[C@H]1C(=O)N2C(C(=O)O)=C(S[C@@H]3CN[C@H](C(=O)N(C)C)C3)CC12C` (stereo partly drawn) [Compound 2a, (6S)-6-[(R)-1-Hydroxyethyl]-3-[(3S,5S)-5-(dimethylamino)carbonyl-3-pyrrolidinylthio]-5-methyl-7-oxoazabicyclo[3.2.0]hept-2-ene-2-carboxylate], the MIC in assay [2] (setting [7]) came to 0.5 mg/L (≈ 1.3 µM); in assay [3] (setting [8]) it was 1 mg/L (≈ 2.61 µM); in assay [4] (setting [10]) it was 4 mg/L (≈ 10.4 µM).
